Test results taken from ChEMBL document CHEMBL6153050, “Repurposing FDA-approved drugs to target G-quadruplexes in breast cancer” (Eur J Med Chem, 2025).
One block for each molecule: values may come before it. Calls of active or inactive are those of the source. The calls are words filed in the database; no cut-off is given here.

Assays:
Quadruplex DNA [1] = settings: time 10.0 min
Quadruplex RNA [2] = settings: time 10.0 min
Quadruplex DNA [3] = settings: time 10.0 min; remark: listed apart in the source
Quadruplex RNA [4] = settings: time 10.0 min; remark: listed apart in the source
Quadruplex DNA [5] = settings: time 10.0 min; remark: listed apart in the source
Quadruplex DNA [6] = settings: time 10.0 min; remark: listed apart in the source
SK-BR-3 [7] = assay: Induction of DNA damage in human SK-BR-3 cells assessed as increase in gamma-H2AX level at IC25 concentration incubated for 6 days by flow cytometric analysis; type: functional, cell-based; settings: time 6.0 day
Quadruplex DNA [8] = assay: Binding affinity to HER2 G4 quadruplex DNA (GGAGAAGGAGGAGGTGGAGGAGGAGGG) (unknown origin) assessed as change in entropy by ITC analysis; type: nucleic-acid assay
MDA-MB-231 [9] = assay: Induction of cell cycle arrest in human MDA-MB-231 cells assessed as reduction in G1 phase at IC25 concentration incubated for 6 days by PI staining based flow cytometric analysis; type: functional; settings: time 6.0 day
Quadruplex DNA [10] = assay: Stabilization of G4 quadruplex DNA (unknown origin) in human SK-BR-3 cells assessed as increase in G4 motif at IC50 concentration incubated for 6 days by flow cytometric analysis; type: cell-based; settings: time 6.0 day
MCF7 [11] = assay: Induction of DNA damage in human MCF7 cells assessed as increase in gamma-H2AX level at IC25 concentration incubated for 6 days by flow cytometric analysis; type: functional, cell-based; settings: time 6.0 day
Quadruplex DNA [12] = assay: Binding affinity to c-Myc G4 quadruplex DNA (TGAGGGTGGGTAGGGTGGGTAA) (unknown origin) assessed as equilibrium binding constant (Ka) by ITC analysis; type: nucleic-acid assay
Quadruplex DNA [13] = assay: Stabilization of G4 quadruplex DNA (unknown origin) in human MCF7 cells at IC25 concentration incubated for 6 days by flow cytometric analysis; type: cell-based; settings: time 6.0 day
Quadruplex DNA [14] = assay: Binding affinity to c-Myc G4 quadruplex DNA (TGAGGGTGGGTAGGGTGGGTAA) (unknown origin) assessed as binding enthalpy by ITC analysis; type: nucleic-acid assay
SK-BR-3 [15] = assay: Induction of cell cycle arrest in human SK-BR-3 cells assessed as accumulation of cells at G2/M phase at IC50 concentration incubated for 6 days by PI staining based flow cytometric analysis; type: functional; settings: time 6.0 day
MCF7 [16] = assay: Cytotoxicity against human MCF7 cells assessed as reduction in cell viability incubated for 6 days by SRB assay; type: functional, cell-based; settings: for IC25: time 6 day
MCF7 [17] = assay: Induction of DNA damage in human MCF7 cells assessed as increase in gamma-H2AX level at IC50 concentration incubated for 6 days by flow cytometric analysis; type: functional, cell-based; settings: time 6.0 day
SK-BR-3 [18] = assay: Induction of DNA damage in human SK-BR-3 cells assessed as increase in gamma-H2AX level at IC50 concentration incubated for 6 days by flow cytometric analysis; type: functional, cell-based; settings: time 6.0 day
Quadruplex DNA [19] = assay: Binding affinity to HER2 G4 quadruplex DNA (GGAGAAGGAGGAGGTGGAGGAGGAGGG) (unknown origin) assessed as Gibbs free energy by ITC analysis; type: nucleic-acid assay
MDA-MB-231 [20] = assay: Cytotoxicity against human MDA-MB-231 cells assessed as reduction in cell viability incubated for 6 days by SRB assay; type: functional, cell-based; settings: for IC25: time 6 day
SK-BR-3 [21] = assay: Cytotoxicity against human SK-BR-3 cells assessed as reduction in cell viability incubated for 6 days by SRB assay; type: functional, cell-based
SK-BR-3 [22] = assay: Induction of cell cycle arrest in human SK-BR-3 cells assessed as accumulation of cells at G2/M phase at IC25 concentration incubated for 6 days by PI staining based flow cytometric analysis; type: functional; settings: time 6.0 day
MCF7 [23] = assay: Downregulation of c-MYC protein expression in human MCF7 cells at IC25 concentration incubated for 6 days by Western blotting analysis; type: functional, cell-based; settings: time 6.0 day
Quadruplex DNA [24] = assay: Binding affinity to c-Myc G4 quadruplex DNA (TGAGGGTGGGTAGGGTGGGTAA) (unknown origin) assessed as change in entropy by ITC analysis; type: nucleic-acid assay
Quadruplex DNA [25] = assay: Binding affinity to HER2 G4 quadruplex DNA (GGAGAAGGAGGAGGTGGAGGAGGAGGG) (unknown origin) assessed as binding enthalpy by ITC analysis; type: nucleic-acid assay
Quadruplex DNA [26] = assay: Binding affinity to HER2 G4 quadruplex DNA (GGAGAAGGAGGAGGTGGAGGAGGAGGG) (unknown origin) assessed as equilibrium binding constant (Ka) by ITC analysis; type: nucleic-acid assay
Quadruplex DNA [27] = assay: Binding affinity to c-Myc G4 quadruplex DNA (TGAGGGTGGGTAGGGTGGGTAA) (unknown origin) assessed as Gibbs free energy by ITC analysis; type: nucleic-acid assay
MCF7 [28] = assay: Effect on cell cycle arrest in human MCF7 cells at IC50 concentration incubated for 6 days by PI staining based flow cytometric analysis; type: functional; settings: time 6.0 day
MDA-MB-231 [29] = assay: Induction of DNA damage in human MDA-MB-231 cells assessed as increase in gamma-H2AX level at IC50 concentration incubated for 6 days by flow cytometric analysis; type: functional, cell-based; settings: time 6.0 day
Quadruplex DNA [30] = assay: Stabilization of G4 quadruplex DNA (unknown origin) in human MDA-MB-231 cells at IC25 concentration incubated for 6 days by flow cytometric analysis; type: cell-based; settings: time 6.0 day
MDA-MB-231 [31] = assay: Induction of DNA damage in human MDA-MB-231 cells assessed as increase in gamma-H2AX level at IC25 concentration incubated for 6 days by flow cytometric analysis; type: functional, cell-based; settings: time 6.0 day
MCF7 [32] = assay: Effect on cell cycle arrest in human MCF7 cells at IC25 concentration incubated for 6 days by PI staining based flow cytometric analysis; type: functional; settings: time 6.0 day
MDA-MB-231 [33] = assay: Effect on cell cycle arrest in human MDA-MB-231 cells at IC25 concentration incubated for 6 days by PI staining based flow cytometric analysis; type: functional; settings: time 6.0 day
MDA-MB-231 [34] = assay: Effect on cell cycle arrest in human MDA-MB-231 cells at IC50 concentration incubated for 6 days by PI staining based flow cytometric analysis; type: functional; settings: time 6.0 day
Quadruplex DNA [35] = assay: Stabilization of G4 quadruplex DNA (unknown origin) in human MCF7 cells at IC50 concentration incubated for 6 days by flow cytometric analysis; type: cell-based; settings: time 6.0 day
Quadruplex DNA [36] = assay: Stabilization of G4 quadruplex DNA (unknown origin) in human MDA-MB-231 cells at IC50 concentration incubated for 6 days by flow cytometric analysis; type: cell-based; settings: time 6.0 day
[37] = Homo sapiens, MDA-MB-231, 144 h

SMILES: COc1cc(NC(C)CCCN)c2ncccc2c1 (centres undefined)
deltaTm1/2 (Quadruplex DNA [1]): 3.6 °C
deltaTm1/2 (Quadruplex RNA [2]): 4.2 °C
deltaTm1/2 (Quadruplex DNA [3]): 3.7 °C
deltaTm1/2 (Quadruplex RNA [4]): 0.3 °C
deltaTm1/2 (Quadruplex DNA [5]): -2.6 °C
deltaTm1/2 (Quadruplex DNA [6]): 0.4 °C

SMILES: CC[C@@]1(O)C(=O)OCc2c1cc1n(c2=O)Cc2c-1nc1ccccc1c2CCNC(C)C [BELOTECAN]
Activity (SK-BR-3 [7]): Active; Slightly Lower Dna Damage Observed
TdeltaS (Quadruplex DNA [8]): 0.621 kcal/mol
Activity (MDA-MB-231 [9]): Active
Activity (Quadruplex DNA [10]): Active
Activity (MCF7 [11]): Active; Slightly Lower Dna Damage Observed
Ka (Quadruplex DNA [12]): 2.3 10^5/M
Activity (Quadruplex DNA [13]): Active
deltaH (Quadruplex DNA [14]): -5.5 kcal/mol
Activity (SK-BR-3 [15]): Active
IC50 (MCF7 [16]; Homo sapiens, MCF7, 144 h): 1.2 nM
IC25 (MCF7 [16]): 0.5 10^-3microM
Activity (MCF7 [17]): Active; Slightly Lower Dna Damage Observed
Activity (SK-BR-3 [18]): Active; Slightly Lower Dna Damage Observed
deltaG (Quadruplex DNA [19]): -7.31 kcal/mol
IC50 (MDA-MB-231 [20]; [37]): 2.4 nM
IC25 (MDA-MB-231 [20]): 1.4 10^-3microM
IC50 (SK-BR-3 [21]; Homo sapiens, SK-BR-3, 144 h): 2 nM
IC25 (SK-BR-3 [21]; time 6 day): 0.9 10^-3microM
deltaTm1/2 (Quadruplex DNA [1]): 16.2 °C
Activity (SK-BR-3 [22]): Active
Activity (MCF7 [23]): Active
TdeltaS (Quadruplex DNA [24]): 1.79 kcal/mol
deltaTm1/2 (Quadruplex RNA [2]): 14.7 °C
deltaTm1/2 (Quadruplex DNA [3]): 12.7 °C
deltaTm1/2 (Quadruplex RNA [4]): 6.6 °C
deltaH (Quadruplex DNA [25]): -6.69 kcal/mol
Ka (Quadruplex DNA [26]): 2.3 10^5/M
deltaTm1/2 (Quadruplex DNA [5]): 7.5 °C
deltaG (Quadruplex DNA [27]): -7.29 kcal/mol
deltaTm1/2 (Quadruplex DNA [6]): 15.9 °C

SMILES: CCN(CC)CCCC(C)Nc1c2ccc(Cl)cc2nc2ccc(OC)cc12 (centres undefined)
deltaTm1/2 (Quadruplex DNA [1]): > 20 °C
deltaTm1/2 (Quadruplex RNA [2]): > 20 °C
deltaTm1/2 (Quadruplex DNA [3]): > 20 °C
deltaTm1/2 (Quadruplex RNA [4]): 15.4 °C
deltaTm1/2 (Quadruplex DNA [5]): 18.5 °C
deltaTm1/2 (Quadruplex DNA [6]): > 20 °C

SMILES: CN(C)CCCOc1nn(Cc2ccccc2)c2ccccc12
deltaTm1/2 (Quadruplex DNA [1]): 8.4 °C
deltaTm1/2 (Quadruplex RNA [2]): 5.1 °C
deltaTm1/2 (Quadruplex DNA [3]): 1.1 °C
deltaTm1/2 (Quadruplex RNA [4]): 0.3 °C
deltaTm1/2 (Quadruplex DNA [5]): 3 °C
deltaTm1/2 (Quadruplex DNA [6]): 2.5 °C

SMILES: Cc1cc2ncc(C(=O)NCC(C)(C)NCC(=O)N3CCC[C@H]3C#N)cn2n1
deltaTm1/2 (Quadruplex DNA [1]): 3.1 °C
deltaTm1/2 (Quadruplex RNA [2]): 1.9 °C
deltaTm1/2 (Quadruplex DNA [3]): -0.9 °C
deltaTm1/2 (Quadruplex RNA [4]): 0.4 °C
deltaTm1/2 (Quadruplex DNA [5]): 5.4 °C
deltaTm1/2 (Quadruplex DNA [6]): -0.1 °C

SMILES: COc1ccc(-c2cc(=O)c3c(OC)c(OC)c(OC)cc3o2)cc1OC
deltaTm1/2 (Quadruplex DNA [1]): 10.6 °C
deltaTm1/2 (Quadruplex RNA [2]): 8.1 °C
deltaTm1/2 (Quadruplex DNA [3]): 5.3 °C
deltaTm1/2 (Quadruplex RNA [4]): 1.1 °C
deltaTm1/2 (Quadruplex DNA [5]): 4 °C
deltaTm1/2 (Quadruplex DNA [6]): 1.5 °C

The next lines start with results.

deltaTm1/2 (Quadruplex DNA [1]): 11 °C
deltaTm1/2 (Quadruplex RNA [2]): 6.3 °C
deltaTm1/2 (Quadruplex DNA [3]): 7.8 °C
deltaTm1/2 (Quadruplex RNA [4]): 1.6 °C
deltaTm1/2 (Quadruplex DNA [5]): 3.2 °C
deltaTm1/2 (Quadruplex DNA [6]): 4 °C
SMILES: O=C(c1ccc(OCCN2CCCCC2)cc1)c1c(-c2ccc(O)cc2)sc2cc(O)ccc12 [RALOXIFENE]
Activity (MCF7 [28]): inactive
Activity (MCF7 [11]): inactive
Activity (MDA-MB-231 [29]): inactive
Activity (Quadruplex DNA [30]): inactive
Activity (Quadruplex DNA [13]): inactive
IC50 (MCF7 [16]; Homo sapiens, MCF7, 144 h): 2700 nM
IC25 (MCF7 [16]; Homo sapiens, MCF7, 144 h, read-out: IC25): 630 nM
Activity (MCF7 [17]): inactive
Activity (MDA-MB-231 [31]): inactive
IC50 (MDA-MB-231 [20]; [37]): 10300 nM
IC25 (MDA-MB-231 [20]; Homo sapiens, MDA-MB-231, 144 h, read-out: IC25): 8200 nM
Activity (MCF7 [32]): inactive
Activity (MDA-MB-231 [33]): inactive
Activity (MDA-MB-231 [34]): inactive
Activity (Quadruplex DNA [35]): inactive
Activity (Quadruplex DNA [36]): inactive

deltaTm1/2 (Quadruplex DNA [1]): 4.9 °C
deltaTm1/2 (Quadruplex RNA [2]): 2.8 °C
deltaTm1/2 (Quadruplex DNA [3]): -0.3 °C
deltaTm1/2 (Quadruplex RNA [4]): 1.7 °C
deltaTm1/2 (Quadruplex DNA [5]): 1.7 °C
deltaTm1/2 (Quadruplex DNA [6]): 1.3 °C
SMILES: N[C@@H]1CCCCN(c2c(F)cc3c(=O)c(C(=O)O)cn(C4CC4)c3c2Cl)C1

deltaTm1/2 (Quadruplex DNA [1]): 8 °C
deltaTm1/2 (Quadruplex RNA [2]): 9.8 °C
deltaTm1/2 (Quadruplex DNA [3]): 1 °C
deltaTm1/2 (Quadruplex RNA [4]): 3.3 °C
deltaTm1/2 (Quadruplex DNA [5]): 4.5 °C
deltaTm1/2 (Quadruplex DNA [6]): 4.6 °C
SMILES: CCn1cc(C(=O)O)c(=O)c2cc(F)c(N3CCN(C)CC3)cc21
